Source: ChEMBL document CHEMBL4507276 (2021)

Assays:
[1] = target: Death-associated protein kinase 3 (Homo sapiens) (UniProt O43293); settings: Compound concentration 1000.0 nM
[2] = target: T1, cAMP-dependent protein kinase catalytic subunit PRKX (Homo sapiens) (UniProt P51817); assay: PRKX Invitrogen selectivity data (BI); settings: Compound concentration 3.0 uM
T1 sequence (whole entry): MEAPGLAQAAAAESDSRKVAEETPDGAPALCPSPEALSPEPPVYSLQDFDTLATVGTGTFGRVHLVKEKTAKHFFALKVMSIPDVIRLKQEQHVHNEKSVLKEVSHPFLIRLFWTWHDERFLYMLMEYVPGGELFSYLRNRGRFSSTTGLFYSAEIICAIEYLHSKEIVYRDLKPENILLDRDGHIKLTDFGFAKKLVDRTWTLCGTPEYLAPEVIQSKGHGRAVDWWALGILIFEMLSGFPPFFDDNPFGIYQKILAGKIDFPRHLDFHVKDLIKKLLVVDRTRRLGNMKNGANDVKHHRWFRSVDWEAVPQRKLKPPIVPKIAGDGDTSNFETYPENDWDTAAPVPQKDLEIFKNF

[3] = target: T2, Discoidin domain-containing receptor 2 (Homo sapiens) (UniProt Q16832); assay: DDR2 Invitrogen selectivity data (BI); settings: Compound concentration 3.0 uM
T2 sequence (whole entry): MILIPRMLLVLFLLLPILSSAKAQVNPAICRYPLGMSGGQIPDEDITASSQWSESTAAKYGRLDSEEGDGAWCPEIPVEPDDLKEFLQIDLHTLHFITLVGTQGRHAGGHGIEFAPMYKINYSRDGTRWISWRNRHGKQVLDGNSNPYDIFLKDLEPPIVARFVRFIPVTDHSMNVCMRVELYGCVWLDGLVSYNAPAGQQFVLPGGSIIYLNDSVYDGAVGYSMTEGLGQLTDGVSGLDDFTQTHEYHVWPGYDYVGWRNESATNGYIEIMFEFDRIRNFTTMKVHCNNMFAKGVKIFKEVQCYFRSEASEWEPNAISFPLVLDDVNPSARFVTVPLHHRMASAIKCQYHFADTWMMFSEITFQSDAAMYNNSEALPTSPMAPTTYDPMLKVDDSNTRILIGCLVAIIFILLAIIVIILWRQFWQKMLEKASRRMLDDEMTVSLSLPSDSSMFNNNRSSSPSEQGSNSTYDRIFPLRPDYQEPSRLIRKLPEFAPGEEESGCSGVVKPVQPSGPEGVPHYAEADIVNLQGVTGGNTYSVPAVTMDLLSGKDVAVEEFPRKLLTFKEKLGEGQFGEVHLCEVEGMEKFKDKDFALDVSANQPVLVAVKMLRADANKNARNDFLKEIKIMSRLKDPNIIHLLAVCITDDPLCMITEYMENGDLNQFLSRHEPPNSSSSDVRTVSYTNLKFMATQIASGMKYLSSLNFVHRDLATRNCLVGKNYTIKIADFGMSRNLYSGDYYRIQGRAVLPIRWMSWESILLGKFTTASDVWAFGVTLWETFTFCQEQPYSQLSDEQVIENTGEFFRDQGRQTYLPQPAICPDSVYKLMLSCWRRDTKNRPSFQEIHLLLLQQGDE

[4] = target: Vasopressin V1a receptor (Homo sapiens) (UniProt P37288); assay: V1A/HUM Cerep selectivity data (BI); settings: Compound concentration 20.0 uM
[5] = target: Casein kinase I isoform epsilon (Homo sapiens) (UniProt P49674); assay: CSNK1E Invitrogen selectivity data (BI); settings: Compound concentration 3.0 uM
[6] = target: Calcium/calmodulin-dependent protein kinase kinase 2 (Homo sapiens) (UniProt Q96RR4); assay: CAMKK2 Invitrogen selectivity data (BI); settings: Compound concentration 3.0 uM
Chain of Calcium/calmodulin-dependent protein kinase kinase 2 (Homo sapiens) (Q96RR4 2-588 limits assumed): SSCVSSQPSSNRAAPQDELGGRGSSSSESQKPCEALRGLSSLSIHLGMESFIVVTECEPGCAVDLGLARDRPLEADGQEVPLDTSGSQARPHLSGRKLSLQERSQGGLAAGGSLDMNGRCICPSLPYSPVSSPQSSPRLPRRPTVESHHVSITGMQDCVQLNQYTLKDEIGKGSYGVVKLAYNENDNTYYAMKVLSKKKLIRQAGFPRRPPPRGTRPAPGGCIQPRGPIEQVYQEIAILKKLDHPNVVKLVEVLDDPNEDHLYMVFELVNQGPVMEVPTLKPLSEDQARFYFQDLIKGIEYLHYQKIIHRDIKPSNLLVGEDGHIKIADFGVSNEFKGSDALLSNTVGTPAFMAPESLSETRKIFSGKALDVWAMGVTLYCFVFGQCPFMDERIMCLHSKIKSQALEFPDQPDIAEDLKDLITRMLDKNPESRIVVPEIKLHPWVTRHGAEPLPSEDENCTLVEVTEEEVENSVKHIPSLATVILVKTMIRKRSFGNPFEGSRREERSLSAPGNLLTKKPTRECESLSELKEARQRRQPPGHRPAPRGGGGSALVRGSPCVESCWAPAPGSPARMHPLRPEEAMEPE

[7] = target: Platelet-derived growth factor receptor alpha (Homo sapiens) (UniProt P16234); assay: PDGFRA Invitrogen selectivity data (BI); settings: Compound concentration 3.0 uM
Chain of Platelet-derived growth factor receptor alpha (Homo sapiens) (P16234 whole entry): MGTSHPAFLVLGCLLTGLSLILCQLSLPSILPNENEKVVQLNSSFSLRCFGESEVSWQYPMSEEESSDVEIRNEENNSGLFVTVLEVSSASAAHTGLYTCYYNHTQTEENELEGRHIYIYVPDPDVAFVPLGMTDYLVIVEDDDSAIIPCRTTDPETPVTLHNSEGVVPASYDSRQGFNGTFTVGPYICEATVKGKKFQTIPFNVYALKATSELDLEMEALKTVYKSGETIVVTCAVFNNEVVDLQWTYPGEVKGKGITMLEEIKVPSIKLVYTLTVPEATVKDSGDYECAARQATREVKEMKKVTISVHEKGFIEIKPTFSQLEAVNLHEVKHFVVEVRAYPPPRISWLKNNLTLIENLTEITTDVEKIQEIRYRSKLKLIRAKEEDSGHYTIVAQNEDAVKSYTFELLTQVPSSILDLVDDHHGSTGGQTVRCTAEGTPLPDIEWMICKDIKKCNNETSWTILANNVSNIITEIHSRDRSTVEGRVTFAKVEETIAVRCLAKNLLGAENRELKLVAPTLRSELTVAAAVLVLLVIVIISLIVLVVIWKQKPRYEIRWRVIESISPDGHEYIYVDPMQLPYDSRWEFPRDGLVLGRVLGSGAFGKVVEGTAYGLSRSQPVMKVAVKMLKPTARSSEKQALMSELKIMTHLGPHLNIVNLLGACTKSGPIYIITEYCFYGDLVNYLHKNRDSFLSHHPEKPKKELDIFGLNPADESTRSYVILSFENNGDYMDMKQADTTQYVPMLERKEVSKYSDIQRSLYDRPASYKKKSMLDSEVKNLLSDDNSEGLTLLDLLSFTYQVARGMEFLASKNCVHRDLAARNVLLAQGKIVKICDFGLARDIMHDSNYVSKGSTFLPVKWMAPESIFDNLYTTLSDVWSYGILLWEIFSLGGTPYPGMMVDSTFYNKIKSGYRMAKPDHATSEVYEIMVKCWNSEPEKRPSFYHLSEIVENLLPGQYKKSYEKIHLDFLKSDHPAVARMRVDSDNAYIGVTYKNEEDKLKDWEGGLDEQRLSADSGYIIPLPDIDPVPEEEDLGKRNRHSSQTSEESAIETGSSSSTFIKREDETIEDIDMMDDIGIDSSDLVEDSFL

[8] = target: Androgen receptor (Rattus norvegicus) (UniProt P15207); assay: TESTOST/RA Eurofins-Panlabs selectivity data (BI); settings: Compound concentration 10.0 uM
Chain of Androgen receptor (Rattus norvegicus) (P15207 whole entry S389L): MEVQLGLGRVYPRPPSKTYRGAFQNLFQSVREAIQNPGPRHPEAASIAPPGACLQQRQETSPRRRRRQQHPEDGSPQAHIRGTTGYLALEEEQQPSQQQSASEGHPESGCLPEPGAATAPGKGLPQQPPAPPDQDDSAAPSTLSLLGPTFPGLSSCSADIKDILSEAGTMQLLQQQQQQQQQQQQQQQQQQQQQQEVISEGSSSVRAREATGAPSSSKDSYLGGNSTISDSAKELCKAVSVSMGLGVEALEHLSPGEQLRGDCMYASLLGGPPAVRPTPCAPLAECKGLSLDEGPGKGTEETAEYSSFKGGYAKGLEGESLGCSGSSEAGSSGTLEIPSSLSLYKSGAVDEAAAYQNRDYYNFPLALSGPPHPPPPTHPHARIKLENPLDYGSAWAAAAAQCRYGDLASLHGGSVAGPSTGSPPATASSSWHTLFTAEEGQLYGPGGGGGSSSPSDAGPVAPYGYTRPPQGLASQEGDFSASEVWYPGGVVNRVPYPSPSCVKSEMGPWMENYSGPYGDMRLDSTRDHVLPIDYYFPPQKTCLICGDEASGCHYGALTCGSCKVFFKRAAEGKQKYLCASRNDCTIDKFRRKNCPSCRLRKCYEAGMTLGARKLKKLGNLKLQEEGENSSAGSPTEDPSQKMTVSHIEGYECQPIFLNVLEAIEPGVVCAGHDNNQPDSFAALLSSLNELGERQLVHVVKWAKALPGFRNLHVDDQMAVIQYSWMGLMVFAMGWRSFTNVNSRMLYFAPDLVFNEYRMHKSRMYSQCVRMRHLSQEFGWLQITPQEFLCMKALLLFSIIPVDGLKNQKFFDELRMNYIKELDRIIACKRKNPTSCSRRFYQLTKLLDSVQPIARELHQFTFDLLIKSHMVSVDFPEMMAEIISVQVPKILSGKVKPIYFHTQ

[9] = target: Somatostatin receptor type 4 (Homo sapiens) (UniProt P31391); assay: SST4_HU Cerep selectivity data (BI); settings: Compound concentration 20.0 uM
Chain of Somatostatin receptor type 4 (Homo sapiens) (P31391 whole entry): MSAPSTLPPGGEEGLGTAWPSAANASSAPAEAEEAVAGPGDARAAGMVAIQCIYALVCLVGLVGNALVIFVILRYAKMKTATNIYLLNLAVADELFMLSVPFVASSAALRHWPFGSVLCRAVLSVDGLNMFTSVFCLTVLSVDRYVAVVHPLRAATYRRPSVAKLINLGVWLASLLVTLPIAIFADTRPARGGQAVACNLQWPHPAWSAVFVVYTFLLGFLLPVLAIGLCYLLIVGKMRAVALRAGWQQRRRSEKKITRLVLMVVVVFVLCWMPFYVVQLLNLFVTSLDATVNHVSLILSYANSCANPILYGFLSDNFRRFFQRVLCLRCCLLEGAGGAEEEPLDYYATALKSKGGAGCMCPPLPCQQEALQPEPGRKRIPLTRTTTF

[10] = target: Acetylcholine receptor subunit alpha (Homo sapiens) (UniProt P02708); assay: NACH/H Eurofins-Panlabs selectivity data (BI); settings: Compound concentration 10.0 uM
[11] = target: Serine/threonine-protein kinase 16 (Homo sapiens) (UniProt O75716); assay: STK16 Invitrogen selectivity data (BI); settings: Compound concentration 3.0 uM
[12] = target: Melatonin receptor type 1A (Homo sapiens) (UniProt P48039); assay: MT1/H Eurofins-Panlabs selectivity data (BI); settings: Compound concentration 10.0 uM
Chain of Melatonin receptor type 1A (Homo sapiens) (P48039 whole entry): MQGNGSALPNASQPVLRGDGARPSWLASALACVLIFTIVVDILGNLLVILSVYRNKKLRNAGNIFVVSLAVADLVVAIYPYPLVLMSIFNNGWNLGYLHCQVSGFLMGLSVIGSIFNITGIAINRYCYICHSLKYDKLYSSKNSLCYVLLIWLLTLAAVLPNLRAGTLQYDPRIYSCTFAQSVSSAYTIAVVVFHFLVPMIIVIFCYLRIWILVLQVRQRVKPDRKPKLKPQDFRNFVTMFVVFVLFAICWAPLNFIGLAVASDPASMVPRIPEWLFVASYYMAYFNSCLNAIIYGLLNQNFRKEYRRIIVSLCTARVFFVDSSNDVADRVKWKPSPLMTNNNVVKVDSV

[13] = target: Neuropeptide Y receptor type 1 (Homo sapiens) (UniProt P25929); assay: Y1/HU Eurofins-Panlabs selectivity data (BI); settings: Compound concentration 10.0 uM
Chain of Neuropeptide Y receptor type 1 (Homo sapiens) (P25929 whole entry): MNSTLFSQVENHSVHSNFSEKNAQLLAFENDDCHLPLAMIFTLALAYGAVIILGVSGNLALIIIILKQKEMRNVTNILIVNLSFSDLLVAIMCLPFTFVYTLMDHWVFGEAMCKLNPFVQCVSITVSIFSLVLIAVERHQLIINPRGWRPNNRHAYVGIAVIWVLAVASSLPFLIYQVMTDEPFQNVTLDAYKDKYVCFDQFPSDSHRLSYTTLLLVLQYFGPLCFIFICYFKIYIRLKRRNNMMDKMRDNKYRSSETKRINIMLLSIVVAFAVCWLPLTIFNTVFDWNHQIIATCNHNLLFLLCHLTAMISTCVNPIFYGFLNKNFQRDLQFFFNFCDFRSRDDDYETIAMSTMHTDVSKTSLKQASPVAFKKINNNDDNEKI

[14] = target: Mitogen-activated protein kinase 14 (Homo sapiens) (UniProt Q16539); assay: MAPK14 Invitrogen selectivity data (BI); settings: Compound concentration 3.0 uM
Chain of Mitogen-activated protein kinase 14 (Homo sapiens) (Q16539 whole entry): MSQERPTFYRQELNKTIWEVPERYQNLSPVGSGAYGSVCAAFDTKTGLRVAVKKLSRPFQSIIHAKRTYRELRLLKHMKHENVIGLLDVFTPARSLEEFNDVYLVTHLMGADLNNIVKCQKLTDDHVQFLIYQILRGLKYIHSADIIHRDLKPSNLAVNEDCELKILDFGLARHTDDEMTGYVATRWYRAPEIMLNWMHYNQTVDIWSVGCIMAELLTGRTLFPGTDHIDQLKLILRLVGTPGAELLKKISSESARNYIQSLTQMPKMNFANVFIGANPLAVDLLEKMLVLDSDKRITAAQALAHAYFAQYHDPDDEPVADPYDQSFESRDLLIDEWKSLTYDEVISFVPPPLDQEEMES

[15] = target: Substance-P receptor (Homo sapiens) (UniProt P25103); assay: NK1/HU Eurofins-Panlabs selectivity data (BI); settings: Compound concentration 10.0 uM
[16] = target: Androgen receptor (Homo sapiens) (UniProt P10275); assay: ANDROGEN/H Cerep selectivity data (BI); settings: Compound concentration 20.0 uM
[17] = target: Cyclin-dependent kinase 2/cyclin A (Homo sapiens) (UniProt P24941+P20248+P78396); assay: CDK2/CYCLINA Invitrogen selectivity data (BI); format: protein-complex assay; settings: Compound concentration 3.0 uM
[18] = target: Type-1 angiotensin II receptor (Homo sapiens) (UniProt P30556); assay: AT1/H Cerep selectivity data (BI); settings: filed as antagonist, Compound concentration 20.0 uM
[19] = target: T3, Activin receptor type-1 (Homo sapiens) (UniProt Q04771); assay: ACVR1 Invitrogen selectivity data (BI); settings: Compound concentration 3.0 uM
T3 sequence (whole entry): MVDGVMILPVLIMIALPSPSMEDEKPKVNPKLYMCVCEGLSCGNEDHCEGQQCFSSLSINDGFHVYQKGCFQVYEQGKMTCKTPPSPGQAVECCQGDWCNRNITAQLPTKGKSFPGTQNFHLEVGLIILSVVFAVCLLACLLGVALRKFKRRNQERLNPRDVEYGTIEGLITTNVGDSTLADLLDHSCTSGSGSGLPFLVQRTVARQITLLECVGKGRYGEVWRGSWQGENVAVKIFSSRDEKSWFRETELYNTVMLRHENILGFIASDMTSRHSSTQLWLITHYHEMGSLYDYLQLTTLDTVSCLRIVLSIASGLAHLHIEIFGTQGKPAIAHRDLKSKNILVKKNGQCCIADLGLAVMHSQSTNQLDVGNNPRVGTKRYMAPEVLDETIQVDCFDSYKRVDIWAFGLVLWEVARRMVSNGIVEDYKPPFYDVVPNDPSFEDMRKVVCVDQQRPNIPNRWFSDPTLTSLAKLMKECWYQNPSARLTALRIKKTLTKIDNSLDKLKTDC

[20] = target: Endothelin receptor type B (Homo sapiens) (UniProt P24530); assay: ETB/HUM Eurofins-Panlabs selectivity data (BI); settings: Compound concentration 10.0 uM
[21] = target: Histamine H3 receptor (Homo sapiens) (UniProt Q9Y5N1); assay: H3/NAMEH_H Cerep selectivity data (BI); settings: filed as antagonist, Compound concentration 20.0 uM
Chain of Histamine H3 receptor (Homo sapiens) (Q9Y5N1 whole entry): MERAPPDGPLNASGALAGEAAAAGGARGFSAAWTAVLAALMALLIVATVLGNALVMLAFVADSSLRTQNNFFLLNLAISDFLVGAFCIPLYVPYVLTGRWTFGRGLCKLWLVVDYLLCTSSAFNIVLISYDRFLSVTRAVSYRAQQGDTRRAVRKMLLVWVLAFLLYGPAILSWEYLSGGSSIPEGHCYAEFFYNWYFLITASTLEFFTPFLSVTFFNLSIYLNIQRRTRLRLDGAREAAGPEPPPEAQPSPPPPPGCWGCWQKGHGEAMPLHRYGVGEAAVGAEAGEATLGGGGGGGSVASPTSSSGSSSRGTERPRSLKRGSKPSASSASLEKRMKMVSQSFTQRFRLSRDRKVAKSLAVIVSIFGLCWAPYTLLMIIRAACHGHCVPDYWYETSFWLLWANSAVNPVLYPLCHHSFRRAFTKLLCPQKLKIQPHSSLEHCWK

[22] = target: Nitric oxide synthase, inducible (Mus musculus) (UniProt P29477); assay: INDUC_NOS Cerep selectivity data (BI); settings: Compound concentration 20.0 uM
[23] = target: Misshapen-like kinase 1 (Homo sapiens) (UniProt Q8N4C8); assay: MINK1 Invitrogen selectivity data (BI); settings: Compound concentration 3.0 uM

Measured: residual activity

Chain of Death-associated protein kinase 3 (Homo sapiens) (O43293 whole entry, looked up): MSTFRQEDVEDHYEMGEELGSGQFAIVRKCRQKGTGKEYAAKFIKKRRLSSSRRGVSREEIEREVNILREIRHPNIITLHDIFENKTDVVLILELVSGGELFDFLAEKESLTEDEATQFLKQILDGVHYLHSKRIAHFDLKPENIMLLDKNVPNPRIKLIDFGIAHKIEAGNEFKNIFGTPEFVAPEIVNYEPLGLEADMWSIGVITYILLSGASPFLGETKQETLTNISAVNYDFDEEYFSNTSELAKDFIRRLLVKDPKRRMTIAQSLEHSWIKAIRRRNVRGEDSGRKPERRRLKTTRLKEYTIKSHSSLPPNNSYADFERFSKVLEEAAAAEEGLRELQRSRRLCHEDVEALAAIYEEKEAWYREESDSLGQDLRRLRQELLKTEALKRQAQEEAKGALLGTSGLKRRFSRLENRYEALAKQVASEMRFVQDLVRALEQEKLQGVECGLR

CN(C)C(=O)Cn1cc(-c2nc(C3(c4ccc(-c5cnc(N)nc5)cc4)CC3)no2)cn1 [BI 0153]
inactive: [1] 92%

CN(C)C(=O)Cn1cc(-c2nc([C@@](C)(c3ccc(-c4cnc(N)nc4)cc3)C3CC3)no2)cn1 [BI 665915]
inactive: [2] 102% | [3] 96% | [4] 50% | [5] 95% | [6] 98% | [7] 86% | [8] 99% | [9] 146% | [10] 97% | [11] 98% | [12] 96% | [13] 109% | [14] 107% | [15] 104% | [16] 102% | [17] 100% | [18] 108% | [19] 79% | [20] 98% | [21] 108% | [22] 79% | [23] 93%
